The text below walks through data of ChEMBL document CHEMBL1201862, “PubChem BioAssay data set” (2004).

Among the test systems are DLD-1; DMS-273; HOP-18; KM-20L2; LXFL 529; M19-MEL; RXF 631; SNB-78; XF498.
Holding throughout (assay): NCI-60 cell line screen, 48 h

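Compound exposure: 48 hours, 5 concentrations, 96-well plates. GI50 marks 50% less growth.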 Active and inactive are the calls of the source. No stated cut-off is given here; in the data, active = GI50 up to about 1.1 µM and inactive = higher. A value given as a limit tells only on which side of the number the result lay.

Consider `COC(=O)C(C)(C)/N=C/N(C)C`, for which the GI50 in the assay on DLD-1, in the assay on DMS-273, in the assay with HOP-18, in the assay with KM-20L2, in the assay with LXFL 529 and with M19-MEL was > 100 µM (inactive) throughout. The GI50 in the assay on RXF 631, with SNB-78 and in the assay with XF498 was > 100 µM (inactive) throughout.

On to `COc1cccc(/C=C2\CCC(CN(C)C)C2=O)c1` (configuration not stated), for which the GI50 with DLD-1 was 2.8 µM (inactive); with DMS-273 it was 12.2 µM (inactive); with HOP-18, 18.6 µM (inactive); in the assay on KM-20L2 it was 15.8 µM (inactive); in the assay with LXFL 529, 2.5 µM (inactive); in the assay on M19-MEL it was 4.84 µM (inactive). Also, the GI50 in the assay on RXF 631 is 6.59 µM (inactive); with SNB-78, 21.7 µM (inactive); in the assay with XF498 it was 18.9 µM (inactive).

`O=C(Nc1nc2ccc([N+](=O)[O-])cc2s1)C(=O)C(C(=O)c1ccncc1)C1OC(=O)c2ccccc21` (configuration not stated): the GI50 was > 100 µM (inactive) with DLD-1; > 100 µM (inactive) in the assay on DMS-273; 42.7 µM (inactive) in the assay with HOP-18; > 100 µM (inactive) in the assay on KM-20L2; > 100 µM (inactive) in the assay on LXFL 529; > 100 µM (inactive) in the assay on M19-MEL. For the same molecule, the GI50 in the assay on RXF 631, in the assay with SNB-78 and in the assay on XF498 was > 100 µM (inactive) each time.

For `CC(=O)OCC1OC(OCc2ccccc2)C(Br)C(OC(C)=O)C1OC(C)=O` (configuration not stated), the GI50 in the assay with DLD-1, with DMS-273, in the assay on HOP-18, with KM-20L2, with LXFL 529 and in the assay with M19-MEL was > 100 µM (inactive) each time. Moreover, the GI50 in the assay on RXF 631, with SNB-78 and with XF498 was > 100 µM (inactive) in each case.

For `CC(=O)C1CC=C(C)CC1` (configuration not stated), the GI50 in the assay on DLD-1, in the assay with DMS-273, in the assay with HOP-18, in the assay on KM-20L2, with LXFL 529 and in the assay with M19-MEL was > 100 µM (inactive) each time. Further, the GI50 with RXF 631, in the assay on SNB-78 and in the assay on XF498 was > 100 µM (inactive) in each case.

For `CCOC1(COP(=O)(OCc2ccccc2)OCc2ccccc2)COC(COP(=O)(OCc2ccccc2)OCc2ccccc2)(OCC)CO1` (configuration not stated), the GI50 in the assay on DLD-1 is > 100 µM (inactive); in the assay with DMS-273 it was > 100 µM (inactive); in the assay on HOP-18, > 100 µM (inactive); with KM-20L2 it was > 100 µM (inactive); in the assay on LXFL 529, > 100 µM (inactive); in the assay on M19-MEL it was 15.5 µM (inactive). The GI50 is 9.44 µM (inactive) in the assay with RXF 631, > 100 µM (inactive) in the assay with SNB-78 and > 100 µM (inactive) in the assay with XF498.

In the case of `CCOC(=O)C1=C(C)N(c2ccccc2)C2=C(C(=O)N(c3ccccc3)C2c2ccccc2)C1c1ccccc1` (configuration not stated), the GI50 in the assay on DLD-1, in the assay with DMS-273, with HOP-18, in the assay with KM-20L2, in the assay on LXFL 529 and in the assay on M19-MEL was > 100 µM (inactive) each time. The GI50 in the assay with RXF 631, in the assay with SNB-78 and in the assay on XF498 was > 100 µM (inactive) throughout.

In the case of `COc1ccccc1/C=C1\CCC(Cc2ccccc2)(CN(C)C)C1=O` (configuration not stated), the GI50 with DLD-1 was 0.414 µM (active); in the assay with DMS-273, 0.294 µM (active); in the assay with HOP-18, > 26.4 µM (inactive); with KM-20L2, 0.644 µM (active); in the assay with LXFL 529, 4.55 µM (inactive); with M19-MEL, 2.98 µM (inactive). Also, the GI50 is 1.85 µM (inactive) in the assay on RXF 631, 2.13 µM (inactive) with SNB-78 and 4.3 µM (inactive) with XF498.
